Experimental data: patent US6585996B1, “Lipid-soluble thiamine derivatives in the treatment of autism” (Westlake Laboratories, Inc., priority 2002, dated 2003)

Legend:
[1] = system: autistic children; settings: 10 subjects, 50 mg TTFD twice a day, rectal suppository, two months
Description: In a pilot study, ten autistic children, eight boys and two girls, were administered 50 mg of TTFD twice a day through a rectal suppository for a two-month trial period. All the patients were previously diagnosed with autism as defined by those in the field. Parents were asked to fill in a symptom check form to assess the symptoms of the autistic children by giving a numerical score as to severity.
Both forms are scored by computer and were designed by the Autism Research Institute specifically for research of this spectrum of disease. The first form, Form E2, is a diagnostic tool that allocates points on a symptomatic basis. The higher the score, the closer the patient comes to being considered a classic case of autism. The common form of autism that is occurring within the pilot test group seldom reaches the score that indicates classic autism, defined as the inability of a person to relate themself in the ordinary way to people and situations from the beginning of life.
The second form, the ATEC (Autism Treatment Evaluation Checklist) form, also allocates points on a symptomatic basis. […] In addition to completing the forms based on patient behavior, physiological changes were also measured.
Clinical improvement, as shown by the bars, is obtained by subtracting the final ATEC score from that calculated at the outset of the study.

[2] = system: children with autism; settings: a few children with autism
Source text: A few children with autism have been exposed to a dermal preparation since the study has been completed.

CC(=C(CCO)SSCC1CCCO1)N(C=O)Cc1cnc(C)nc1N (stereo in doubt) [TTFD, thiamine tetrahydrofurfuryl disulfide]
Subjects showing clinical improvement in their autistic disorder [1]: Eight of the 10
Clinical results of oral versus rectal administration: does not appear to give as striking clinical results as rectal administration
Clinical condition with dermal preparation [2]: immediate improvement in the child's condition was noted
